This passage reports TGI results from PubChem BioAssay (NCI).

Test systems include A498 renal; BT-549 breast; DU-145 prostate; LOX IMVI melanoma; MDA-N; OVCAR-4 ovarian; HOP-62 NSCLC; UACC-62 melanoma; A549 NSCLC; NCI-H226 lung; HCT-15 colon; SNB-19 CNS; SK-MEL-5 melanoma; ACHN renal; HCT-116 colon; NCI/ADR-RES ovarian; HOP-92 NSCLC; K-562 leukemia; COLO 205 colon; T-47D breast.
Common to all, as to test: inhibition of tumour cell growth, NCI panel, 48 h

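Five concentrations, 48 hours, 96-well plates. TGI: concentration producing complete growth inhibition.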

On to `O=c1c2sc(=S)n(-c3ccc(F)cc3)c2ncn1/N=C/c1ccc(F)cc1F`, for which the TGI was 58.2 µM in the experiment on A498 renal; 37.5 µM in the experiment with BT-549 breast; 39.4 µM in the experiment on DU-145 prostate; over 100 µM with LOX IMVI melanoma; over 100 µM in the experiment on MDA-N; 46.8 µM with OVCAR-4 ovarian. The TGI in the experiment with HOP-62 NSCLC was 30.7 µM; in the experiment with UACC-62 melanoma, over 100 µM; in the experiment on A549 NSCLC, over 100 µM; with NCI-H226 lung, 87 µM; with HCT-15 colon it was over 100 µM; in the experiment with SNB-19 CNS it was 62.6 µM. Moreover, the TGI in the experiment on SK-MEL-5 melanoma is over 100 µM; in the experiment with ACHN renal it was over 100 µM; in the experiment with HCT-116 colon, over 100 µM; in the experiment with NCI/ADR-RES ovarian it was over 100 µM; in the experiment on HOP-92 NSCLC, 44 µM; in the experiment with K-562 leukemia, over 100 µM. In addition, the TGI with COLO 205 colon was over 100 µM.

On to `CC1CCC(C(=O)O)(C(Br)C(=O)O)CC1` (configuration not stated), for which the TGI with BT-549 breast, in the experiment with DU-145 prostate, in the experiment on LOX IMVI melanoma, in the experiment on MDA-N, with OVCAR-4 ovarian and in the experiment on HOP-62 NSCLC was over 100 µM in each case. The TGI in the experiment with UACC-62 melanoma, in the experiment on A549 NSCLC, in the experiment with NCI-H226 lung, with HCT-15 colon, in the experiment with SNB-19 CNS and with SK-MEL-5 melanoma was over 100 µM each time. Moreover, the TGI with ACHN renal, with HCT-116 colon, in the experiment on NCI/ADR-RES ovarian, in the experiment on HOP-92 NSCLC and with K-562 leukemia was over 100 µM in each case.

Turning to `O=c1[nH]c(Nc2nc3ccccc3[nH]2)nc(O)c1-c1ccccc1`, the TGI in the experiment with A498 renal, in the experiment with BT-549 breast, in the experiment on DU-145 prostate, in the experiment on LOX IMVI melanoma, in the experiment with MDA-N and with OVCAR-4 ovarian was over 100 µM each time. The TGI in the experiment on HOP-62 NSCLC, in the experiment with UACC-62 melanoma, in the experiment on A549 NSCLC, in the experiment on NCI-H226 lung, in the experiment with HCT-15 colon and in the experiment with SNB-19 CNS was over 100 µM in each case. The TGI in the experiment on SK-MEL-5 melanoma, with ACHN renal, with HCT-116 colon, in the experiment with NCI/ADR-RES ovarian, in the experiment with HOP-92 NSCLC and in the experiment with K-562 leukemia was over 100 µM throughout. For the same molecule, the TGI in the experiment with COLO 205 colon is over 100 µM.

Regarding `COc1cc(/C=C/C(=O)CC(=O)/C=C/c2ccc(OC(=O)CCCCC3CCSS3)c(OC)c2)ccc1OC(=O)CCCCC1CCSS1` (configuration not stated), the TGI in the experiment on BT-549 breast, with DU-145 prostate, with LOX IMVI melanoma, with MDA-N, with OVCAR-4 ovarian and in the experiment with HOP-62 NSCLC was over 100 µM throughout. Besides, the TGI with UACC-62 melanoma, with A549 NSCLC, in the experiment with NCI-H226 lung, in the experiment on HCT-15 colon, in the experiment on SNB-19 CNS and in the experiment on SK-MEL-5 melanoma was over 100 µM in each case. Moreover, the TGI in the experiment with ACHN renal, in the experiment with HCT-116 colon, in the experiment on NCI/ADR-RES ovarian, with K-562 leukemia and with COLO 205 colon was over 100 µM each time.

Turning to `O=C1NCC2(CCN(CCCC3(c4ccc(F)cc4)OCCO3)CC2)N1c1ccccc1`, the TGI in the experiment on A498 renal, in the experiment with T-47D breast, in the experiment on DU-145 prostate, in the experiment with LOX IMVI melanoma, with MDA-N and in the experiment on OVCAR-4 ovarian was over 100 µM each time. Besides, the TGI in the experiment with HOP-62 NSCLC, with UACC-62 melanoma, in the experiment with A549 NSCLC, in the experiment on NCI-H226 lung, with HCT-15 colon and with SNB-19 CNS was over 100 µM in each case. Also, the TGI with SK-MEL-5 melanoma, with ACHN renal, in the experiment on HCT-116 colon, in the experiment on NCI/ADR-RES ovarian, in the experiment with HOP-92 NSCLC and in the experiment on K-562 leukemia was over 100 µM in each case. Moreover, the TGI in the experiment on COLO 205 colon was over 100 µM.

As for `CSC(=S)N/N=C(\C)c1ccc(S(=O)(=O)N(C)c2ccccc2)cc1`, the TGI in the experiment with A498 renal, with T-47D breast, with DU-145 prostate, with LOX IMVI melanoma, in the experiment with MDA-N and in the experiment on OVCAR-4 ovarian was over 100 µM throughout. Also, the TGI in the experiment with HOP-62 NSCLC, in the experiment with UACC-62 melanoma, in the experiment on A549 NSCLC, in the experiment with NCI-H226 lung, with HCT-15 colon and with SNB-19 CNS was over 100 µM each time. Moreover, the TGI in the experiment with ACHN renal, in the experiment with HCT-116 colon, in the experiment with NCI/ADR-RES ovarian, in the experiment with HOP-92 NSCLC, in the experiment on K-562 leukemia and in the experiment with COLO 205 colon was over 100 µM throughout.

Take `O=C(CC(C(=O)c1ccsc1)c1ccc2c(c1)OCO2)c1ccccc1` (configuration not stated): the TGI in the experiment on A498 renal, in the experiment with T-47D breast, in the experiment on DU-145 prostate, in the experiment on LOX IMVI melanoma, in the experiment on MDA-N and in the experiment on OVCAR-4 ovarian was over 100 µM throughout. Moreover, the TGI is over 100 µM in the experiment on HOP-62 NSCLC; over 100 µM in the experiment on UACC-62 melanoma; 50.7 µM in the experiment on A549 NSCLC; over 100 µM with NCI-H226 lung; over 100 µM in the experiment with HCT-15 colon; over 100 µM with SK-MEL-5 melanoma. The TGI with ACHN renal, in the experiment with HCT-116 colon, in the experiment with NCI/ADR-RES ovarian, with HOP-92 NSCLC, in the experiment with K-562 leukemia and in the experiment on COLO 205 colon was over 100 µM throughout.
